Assay results as given in PMC10514461, “Characterization of a novel inhibitor for the New Delhi metallo-β-lactamase-4: Implications for drug design and combating bacterial drug resistance” (The Journal of Biological Chemistry, 2023).

How the values were obtained:
NDM-1 [1] = type: biochemical; settings: against the NDMs (NDM-1 and NDM-4)
Procedure: The IC50 and Ki values were determined by the direct competition between nitrocefin substrate and inhibitors under appropriately controlled experiments. Different concentrations of inhibitor ranging from 0.001 to 500 μM, a fixed concentration of 12 nM of purified protein, and 20 μM of nitrocefin substrate were used in reaction. The rate of product formation was monitored based on the absorbance at 486 nm taken at 10 s intervals for 30 min. The relative change in absorbance was evaluated as percentage inhibition, and the IC50 was determined by fitting the data to a sigmoidal dose-response curve. The enzyme inhibition constant (Ki) was derived from initial-velocity measurements by nonlinear regression via competitive-inhibition enzyme kinetics using GraphPad Prism 9.

[2] = test system: Verona-integron-encoded MBL 2; settings: against Verona-integron-encoded MBL 2; cited from earlier work
NDM-1 [3] = target: NDM-1 (Klebsiella pneumoniae, UniProt C7C422); assay: Steady state kinetics of nitrocefin hydrolysis, NDM-1; type: biochemical; settings: nitrocefin as substrate
NDM-1 (Klebsiella pneumoniae, UniProt C7C422), sequence (C7C422 42-270 limits assumed): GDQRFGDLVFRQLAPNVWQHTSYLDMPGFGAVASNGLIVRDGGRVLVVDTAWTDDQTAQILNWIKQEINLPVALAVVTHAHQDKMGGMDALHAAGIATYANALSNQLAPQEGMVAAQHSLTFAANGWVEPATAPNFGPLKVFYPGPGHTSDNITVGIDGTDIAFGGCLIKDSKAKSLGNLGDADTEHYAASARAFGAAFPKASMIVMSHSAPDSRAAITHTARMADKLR
Procedure: (§1) Nitrocefin (Cayman, CAS 41906-86-9) was used as the chromogenic substrate for all enzyme kinetic assays. The enzymatic activity of purified NDM-1 and NDM-4 was determined spectrophotometrically at room temperature in 1X PBS, pH 7. The rate of product formation was monitored based on the absorbance at 486 nm taken at 10 s intervals for 30 min. The KM and kcat values were determined from ten different concentrations of nitrocefin ranging from 0.01 μM to 250 μM with at least four independent initial-velocity measurements using 12 nM of each enzyme and fitted by nonlinear regression using Michaelis–Menten enzyme kinetics with GraphPad Prism 9 (https://www.graphpad.com/).

NDM-4 (M154L) = target: T1, NDM-4 (M154L) (Klebsiella pneumoniae, UniProt C7C422, M154L); assay: Steady state kinetics of nitrocefin hydrolysis, NDM-4; type: biochemical; settings: nitrocefin as substrate
T1 construct: The electron density for the polypeptide chain was continuous from Gly 42 to Arg 270; polyhistidine (with TEV site) (N, cleaved yes); made in house; host or cells: Rosetta2(DE3) E. coli
T1 sequence (C7C422 42-270 M154L): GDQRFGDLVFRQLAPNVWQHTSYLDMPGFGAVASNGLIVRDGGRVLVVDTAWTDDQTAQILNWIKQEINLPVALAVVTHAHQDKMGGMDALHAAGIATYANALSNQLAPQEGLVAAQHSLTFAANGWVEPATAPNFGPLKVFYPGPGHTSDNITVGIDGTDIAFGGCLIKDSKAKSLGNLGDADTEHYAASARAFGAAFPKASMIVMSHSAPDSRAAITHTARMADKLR
Procedure: as §1

With `O=C(O)c1cccc(=S)n1O` [Compound 1, 1-hydroxypyridine-2(1H)-thione-6-carboxylic acid] as the compound, how does the “potency over L-captopril” value (NDM-1 [1]) read?
The value was over 1600 fold.

What about the “enhanced inhibition activity over parent scaffold 1,2 hydroxy pyrithione” value [2] of the same compound?
Its value is “more than 10 fold”.

Which results are given for `O=C(Cc1cccs1)N[C@@H]1C(=O)N2C(C(=O)O)=C(/C=C/c3ccc([N+](=O)[O-])cc3[N+](=O)[O-])CS[C@H]12` [Nitrocefin]?
kcat (NDM-1 [3]; NDM-1): 86 ± 11 s⁻¹; Km (NDM-1 [3]; NDM-1, 1X PBS pH 7, room temperature): 10.9 ± 0.6 µM; kcat (NDM-4 (M154L); NDM-4): 70 ± 7 s⁻¹; Km (NDM-4 (M154L); NDM-4, 1X PBS pH 7, room temperature): 9.4 ± 0.2 µM
